# Results reported in patent US20260231994A1, “TASTE-ENHANCING COMPOSITION, METHOD FOR PRODUCING SAME, FOOD PRODUCT, AND METHOD FOR ENHANCING TASTE OF FOOD PRODUCT” (HOUSE FOODS GROUP INC., priority 2023, published 2026).
# Columns and labels:
# Format in all cases: in vivo
# [1] = Experiment 1 sensory evaluation of “boosting of flavor” (cyclic dipeptides, coriander); conditions: for “boosting of flavor” Average: cyclic dipeptide aqueous solution (concentration as in heat-treated coriander) at final 0.2% (w/w) in reduced-sodium curry roux dispersion, score 1-5; for “boosting of flavor” Evaluation: cyclic dipeptide aqueous solution at final 0.2% (w/w) in reduced-sodium curry roux dispersion, class of average score; for “boosting of flavor” in words: added to reduced-sodium curry roux dispersion, compared with no addition, unheated coriander or common curry roux
# Protocol: Flour roux was prepared by putting 20 g of flour and 30 g of beef tallow in a pan, then heating with stirring at 120° C. To this flour roux were added 10 g of sodium chloride, 10 g of sugar, 10 g of cornstarch, 5 g of curry powder and 15 g of other seasoning ingredients (vegetable and fruit extracts, yeast extract and seafood extract), and after heat-treatment to 105° C., the mixture was cooled and solidified, to form a block of common curry roux.
# The sodium chloride equivalent per 100 g of this curry roux was 10.6 g.
# Reduced-sodium curry roux was prepared according to the same procedure, except that the amount of sodium chloride was reduced to 7 g from the amount in the common curry roux in (1).
# The sodium chloride equivalent per 100 g of this reduced-sodium curry roux was 7.7 g.
# Out of the cyclic dipeptides included in the heat-treated coriander prepared in 1.1. described above, which were confirmed to be increased in 1.2. above, an aqueous solution of the respective 14 cyclic dipeptides shown in the table described below was prepared. The concentration of the cyclic dipeptide in each aqueous solution was set to be equal to its concentration in the heat-treated coriander prepared in 1.1. described above, which was estimated from the ratio of the peak area of the cyclic dipeptide to the peak area of the internal standard (47 μg/g L-lysine-^13C6 monohydrochloride) confirmed in 1.2. described above.
# Two dispersions of 44 g of the reduced-sodium curry roux in (2) dispersed in 300 g of hot water were prepared.
# To one of them was added the heat-treated coriander or the powdered unheated coriander prepared in 1.1. described above, or the cyclic dipeptide aqueous solution (corresponding to the heat-treated coriander) prepared in (3) above, so that the final concentration was 0.2% (w/w), and a sensory evaluation was carried out.
# Forty-four grams of the common curry roux in (1) was dispersed in 300 g of hot water.
# The dispersion of reduced-sodium curry roux dispersed in hot water and the dispersion of common curry roux dispersed in hot water were used as comparative controls, and the strength of the flavor was evaluated by four evaluators on the basis of the following evaluation criteria from the viewpoint of “boosting of flavor.” The term “boosting of flavor” in this experiment is an effect concerted by the combination of sodium chloride and other foodstuffs in curry roux, and is an aspect of “saltiness.” Thus, the “flavor” in this experiment can be also expressed as “saltiness.”
# The average of the evaluated scores was defined as “F” when it was 1.0 or lower, “C” when it was 1.1 or higher and 1.9 or lower, “B” when it was 2.0 or higher and 2.5 or lower, “A” when it was 2.6 or higher and 2.9 or lower, and “AA” when it was 3.0 or higher.
# [2] = Experiment 6 sensory evaluation of cyclic dipeptides, “top sharp saltiness”
# Outline: (§1)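 Reduced-sodium curry roux (44 g in 300 g hot water) was spiked with cyclic dipeptide solutions matching heat-treated coriander or paprika levels, at 0.5% or 1.0% (w/w) final. Three evaluators scored each sample against unspiked reduced-sodium and common roux. Mean scores were graded F to AA.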
# [3] = Experiment 6 sensory evaluation of cyclic dipeptides, “middle fullness (enhanced thickness)”
# Outline: as §1
# [4] = Experiment 6 sensory evaluation of cyclic dipeptides, “boosting of last flavor (aftertaste)”
# Outline: as §1
# [5] = Additive amount paprika 0.5% (heat-treated paprika equivalent aqueous solution, final 0.5% (w/w)), reduced-sodium curry roux
# [6] = Additive amount paprika 0.5%, reduced-sodium curry roux
# [7] = heat-treated paprika equivalent aqueous solution of cyclic dipeptide, final 1.0% (w/w) in reduced-sodium curry roux dispersion
# [8] = heat-treated paprika equivalent aqueous solution of cyclic dipeptide, final 1.0% (w/w) in reduced-sodium curry roux dispersion, 3 evaluators
# [9] = Additive amount coriander 0.5% (heat-treated coriander equivalent aqueous solution, final 0.5% (w/w)), reduced-sodium curry roux
# [10] = Additive amount coriander 0.5%, reduced-sodium curry roux
# [11] = heat-treated coriander equivalent aqueous solution of cyclic dipeptide, final 1.0% (w/w) in reduced-sodium curry roux dispersion
# [12] = heat-treated coriander equivalent aqueous solution of cyclic dipeptide, final 1.0% (w/w) in reduced-sodium curry roux dispersion, 3 evaluators
Substance,“boosting of flavor” Average [1] [points],“boosting of flavor” Evaluation [1],"Top sharp saltiness Average [2, 5] [points]","Top sharp saltiness Evaluation [2, 6]","Top sharp saltiness Evaluation [2, 7]","Top sharp saltiness Average [2, 8] [points]","Middle fullness Average [3, 6] [points]","Middle fullness Evaluation [3, 6]","Top sharp saltiness Average [2, 9] [points]","Top sharp saltiness Evaluation [2, 10]","Top sharp saltiness Evaluation [2, 11]","Top sharp saltiness Average [2, 12] [points]","Middle fullness Average [3, 10] [points]","Middle fullness Evaluation [3, 10]","Middle fullness Evaluation [3, 11]","Middle fullness Average [3, 12] [points]","Bosting of last flavor Average [4, 10] [points]","Bosting of last flavor Evaluation [4, 10]","Bosting of last flavor Evaluation [4, 11]","Bosting of last flavor Average [4, 12] [points]",also measured
cyclic (Gly-Val) [Coriander ID 21],2.3,B (“B” when it was 2.0 or higher and 2.5 or lower),2.3,B (“B” when it was 2.0 or higher and 2.5 or lower),C (“C” when it was 1.1 or higher and 1.9 or lower),1.7,2.3,B (“B” when it was 2.0 or higher and 2.5 or lower),–,–,–,–,–,–,–,–,–,–,–,–,"Middle fullness Evaluation [3, 7]: B (“B” when it was 2.0 or higher and 2.5 or lower); Middle fullness Average [3, 8]: 2.0 points; Bosting of last flavor Average [4, 6]: 2.5 points; Bosting of last flavor Evaluation [4, 6]: B (“B” when it was 2.0 or higher and 2.5 or lower); Bosting of last flavor Evaluation [4, 7]: B (“B” when it was 2.0 or higher and 2.5 or lower); Bosting of last flavor Average [4, 8]: 2.2 points"
cyclic (Arg-Pro) [Coriander ID 45],2.0,B (“B” when it was 2.0 or higher and 2.5 or lower),–,–,–,–,–,–,2.0,B (“B” when it was 2.0 or higher and 2.5 or lower),C (“C” when it was 1.1 or higher and 1.9 or lower),1.8,2.5,B (“B” when it was 2.0 or higher and 2.5 or lower),B (“B” when it was 2.0 or higher and 2.5 or lower),2.0,2.8,A (“A” when it was 2.6 or higher and 2.9 or lower),B (“B” when it was 2.0 or higher and 2.5 or lower),2.2,–
cyclic (Leu/Ile-Val) [Coriander ID 42],2.0,B (“B” when it was 2.0 or higher and 2.5 or lower),–,–,–,–,–,–,2.5,B (“B” when it was 2.0 or higher and 2.5 or lower),B (“B” when it was 2.0 or higher and 2.5 or lower),2.0,2.8,A (“A” when it was 2.6 or higher and 2.9 or lower),A (“A” when it was 2.6 or higher and 2.9 or lower),2.7,3.0,AA (“AA” when it was 3.0 or higher),A (“A” when it was 2.6 or higher and 2.9 or lower),2.7,–
cyclic (Ala-Pro) [Coriander ID 23],2.0,B (“B” when it was 2.0 or higher and 2.5 or lower),2.3,B (“B” when it was 2.0 or higher and 2.5 or lower),A (“A” when it was 2.6 or higher and 2.9 or lower),2.7,2.2,B (“B” when it was 2.0 or higher and 2.5 or lower),–,–,–,–,–,–,–,–,–,–,–,–,"Middle fullness Evaluation [3, 7]: AA (“AA” when it was 3.0 or higher); Middle fullness Average [3, 8]: 3.0 points; Bosting of last flavor Average [4, 6]: 2.2 points; Bosting of last flavor Evaluation [4, 6]: B (“B” when it was 2.0 or higher and 2.5 or lower); Bosting of last flavor Evaluation [4, 7]: AA (“AA” when it was 3.0 or higher); Bosting of last flavor Average [4, 8]: 3.0 points"
cyclic (Pro-Met) [Coriander ID 53],2.3,B (“B” when it was 2.0 or higher and 2.5 or lower),–,–,–,–,–,–,3.0,AA (“AA” when it was 3.0 or higher),AA (“AA” when it was 3.0 or higher),3.0,3.2,AA (“AA” when it was 3.0 or higher),AA (“AA” when it was 3.0 or higher),3.0,3.0,AA (“AA” when it was 3.0 or higher),AA (“AA” when it was 3.0 or higher),3.8,–
cyclic (Phe-Ala) [Coriander ID 33],3.0,AA (“AA” when it was 3.0 or higher),–,–,–,–,–,–,2.3,B (“B” when it was 2.0 or higher and 2.5 or lower),B (“B” when it was 2.0 or higher and 2.5 or lower),2.0,2.5,B (“B” when it was 2.0 or higher and 2.5 or lower),B (“B” when it was 2.0 or higher and 2.5 or lower),2.5,2.5,B (“B” when it was 2.0 or higher and 2.5 or lower),B (“B” when it was 2.0 or higher and 2.5 or lower),2.5,“boosting of flavor” in words [1]: comparable flavor to that of the dispersion of common curry roux
cyclic (Pro-Val) [Coriander ID 29],3.0,AA (“AA” when it was 3.0 or higher),2.5,B (“B” when it was 2.0 or higher and 2.5 or lower),B (“B” when it was 2.0 or higher and 2.5 or lower),2.2,2.3,B (“B” when it was 2.0 or higher and 2.5 or lower),–,–,–,–,–,–,–,–,–,–,–,–,"“boosting of flavor” in words [1]: comparable flavor to that of the dispersion of common curry roux; Middle fullness Evaluation [3, 7]: B (“B” when it was 2.0 or higher and 2.5 or lower); Middle fullness Average [3, 8]: 2.3 points; Bosting of last flavor Average [4, 6]: 2.2 points; Bosting of last flavor Evaluation [4, 6]: B (“B” when it was 2.0 or higher and 2.5 or lower); Bosting of last flavor Evaluation [4, 7]: B (“B” when it was 2.0 or higher and 2.5 or lower); Bosting of last flavor Average [4, 8]: 2.3 points"
cyclic (Ala-Val) [Coriander ID 27],3.0,AA (“AA” when it was 3.0 or higher),–,–,–,–,–,–,2.3,B (“B” when it was 2.0 or higher and 2.5 or lower),B (“B” when it was 2.0 or higher and 2.5 or lower),2.5,2.2,B (“B” when it was 2.0 or higher and 2.5 or lower),AA (“AA” when it was 3.0 or higher),3.0,2.3,B (“B” when it was 2.0 or higher and 2.5 or lower),A (“A” when it was 2.6 or higher and 2.9 or lower),2.7,“boosting of flavor” in words [1]: comparable flavor to that of the dispersion of common curry roux
